Reference: patent publication US7528138B2, “Pyrazolo[1,5-a]pyrimidines useful as inhibitors of protein kinases” (Vertex Pharmaceuticals Incorporated, priority 2004, dated 2009)

What was measured:
Format in all cases: biochemical
Itk = molecular target: T1, Itk (Homo sapiens, UniProt Q08881); assay: ITK Inhibition Assay (Radiometric), radioactive-phosphate incorporation; conditions: enzyme inhibition data (Ki), Table 11; radiometric or UV assay not stated
T1 sequence (Q08881 1-620): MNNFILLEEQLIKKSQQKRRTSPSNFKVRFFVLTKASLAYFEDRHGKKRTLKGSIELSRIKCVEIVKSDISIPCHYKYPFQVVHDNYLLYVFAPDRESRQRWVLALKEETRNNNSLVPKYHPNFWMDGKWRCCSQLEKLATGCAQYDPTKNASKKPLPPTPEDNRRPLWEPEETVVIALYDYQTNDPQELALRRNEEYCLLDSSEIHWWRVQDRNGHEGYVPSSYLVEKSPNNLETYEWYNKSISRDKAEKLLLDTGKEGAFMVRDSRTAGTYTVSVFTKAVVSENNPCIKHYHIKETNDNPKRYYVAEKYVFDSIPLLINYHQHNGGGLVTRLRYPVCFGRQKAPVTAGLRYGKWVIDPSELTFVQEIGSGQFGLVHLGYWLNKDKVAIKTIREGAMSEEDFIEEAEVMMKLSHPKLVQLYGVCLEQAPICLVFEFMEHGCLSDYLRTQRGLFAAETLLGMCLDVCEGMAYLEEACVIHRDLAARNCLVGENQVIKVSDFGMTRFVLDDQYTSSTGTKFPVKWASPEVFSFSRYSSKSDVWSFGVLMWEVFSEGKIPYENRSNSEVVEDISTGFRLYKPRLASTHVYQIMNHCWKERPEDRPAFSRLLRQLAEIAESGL
Description: Assays are carried out in a mixture of 20 mM MOPS (pH 7.0), 10 mM MgCl2, 0.1% BSA and 1 mM DTT. Final substrate concentrations in the assay are 7.5 μM [γ-33P]ATP (400 mCi 33P ATP/mmol ATP, Amersham Pharmacia Biotech/Sigma Chemicals) and 3 μM peptide (SAM68 protein D332-443). Assays are carried out at 25° C. in the presence of 50 nM Itk. An assay stock buffer solution is prepared containing all of the reagents listed above, with the exception of ATP and the test compound of interest. 50 μL of the stock solution is placed in a 96 well plate followed by addition of 2 μL of DMSO stock containing serial dilutions of the test compound (typically starting from a final concentration of 50 μM with 2-fold serial dilutions) in duplicate (final DMSO concentration 2%). The plate is pre-incubated for 10 minutes at 25° C. and the reaction initiated by addition of 50 μL [γ-33P]ATP (final concentration 7.5 μM).
The reaction is stopped after 10 minutes by the addition of […] 0.2M phosphoric acid+0.01% TWEEN 20. A multiscreen phosphocellulose filter 96-well plate (Millipore, Cat no. MAPHN0B50) is pretreated with 100 μL 0.2M phosphoric acid +0.01% TWEEN 20 prior to the addition of […] of the stopped assay mixture. The plate is washed with 4×200 μL 0.2M phosphoric acid+0.01% TWEEN 20. After drying, 30 μL Optiphase ‘SuperMix’ liquid scintillation cocktail (Perkin Elmer) is added to the well prior to scintillation counting (1450 Microbeta Liquid Scintillation Counter, Wallac).
Ki(app) data are calculated from non-linear regression analysis of the initial rate data using the Prism software package (GraphPad Prism version 3.0cx for Macintosh, GraphPad Software, San Diego Calif., USA).

JAK3 = molecular target: T2, JAK3 (Homo sapiens, UniProt P52333); assay: JAK3 Inhibition Assay, 33P incorporation; conditions: enzyme inhibition data (Ki), Table 11
T2 sequence (P52333 1-1124): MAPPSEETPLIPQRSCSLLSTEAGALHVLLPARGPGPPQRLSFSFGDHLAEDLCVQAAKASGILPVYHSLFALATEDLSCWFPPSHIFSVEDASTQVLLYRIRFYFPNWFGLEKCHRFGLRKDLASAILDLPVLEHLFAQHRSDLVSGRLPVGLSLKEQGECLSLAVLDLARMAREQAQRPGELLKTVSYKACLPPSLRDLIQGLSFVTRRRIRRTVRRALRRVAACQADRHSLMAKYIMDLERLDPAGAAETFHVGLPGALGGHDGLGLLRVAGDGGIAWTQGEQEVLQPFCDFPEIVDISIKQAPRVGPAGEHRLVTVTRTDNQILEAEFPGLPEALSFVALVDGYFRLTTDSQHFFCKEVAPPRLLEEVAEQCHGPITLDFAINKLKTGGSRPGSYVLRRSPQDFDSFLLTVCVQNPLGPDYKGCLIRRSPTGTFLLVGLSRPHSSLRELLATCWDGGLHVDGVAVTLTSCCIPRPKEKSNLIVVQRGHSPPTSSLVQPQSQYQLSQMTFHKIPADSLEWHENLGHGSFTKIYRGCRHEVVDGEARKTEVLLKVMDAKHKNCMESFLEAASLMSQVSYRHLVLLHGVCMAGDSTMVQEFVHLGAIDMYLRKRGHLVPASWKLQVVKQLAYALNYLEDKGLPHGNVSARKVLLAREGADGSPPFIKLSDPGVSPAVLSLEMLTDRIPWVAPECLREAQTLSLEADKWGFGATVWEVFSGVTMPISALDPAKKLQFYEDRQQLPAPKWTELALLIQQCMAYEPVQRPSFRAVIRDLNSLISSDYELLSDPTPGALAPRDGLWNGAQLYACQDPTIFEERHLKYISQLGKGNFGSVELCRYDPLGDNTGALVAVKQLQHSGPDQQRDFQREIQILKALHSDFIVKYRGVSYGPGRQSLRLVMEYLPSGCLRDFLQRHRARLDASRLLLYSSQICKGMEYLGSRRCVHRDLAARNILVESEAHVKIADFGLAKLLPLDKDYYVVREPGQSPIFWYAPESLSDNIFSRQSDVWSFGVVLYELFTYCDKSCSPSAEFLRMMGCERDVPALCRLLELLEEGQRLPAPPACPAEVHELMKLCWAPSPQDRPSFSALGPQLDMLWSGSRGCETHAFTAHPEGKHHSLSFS
Description: Reactions are carried out in a kinase buffer containing 100 mM HEPES (pH 7.4), 1 mM DTT, 10 mM MgCl2, 25 mM NaCl, and 0.01% BSA. Substrate concentrations in the assay are 5 μM ATP (200 uCi/μmole ATP) and 1 μM poly(Glu)4Tyr. Reactions are carried out at 25° C. and 1 nM JAK3. To each well of a 96 well polycarbonate plate is added 1.5 μl of a candidate JAK3 inhibitor along with 50 μl of kinase buffer containing 2 μM poly(Glu)4Tyr and 10 μM ATP. This is then mixed and 50 μl of kinase buffer containing 2 nM JAK3 enzyme is added to start the reaction. After 20 minutes at room temperature (25 C), the reaction is stopped with 50 μl of 20% trichloroacetic acid (TCA) that also contained 0.4 mM ATP. The entire contents of each well are then transferred to a 96 well glass fiber filter plate using a TomTek Cell Harvester. After washing, 60 μl of scintillation fluid is added and ^33P incorporation detected on a Perkin Elmer TopCount.

c-Met = c-Met (Homo sapiens, UniProt P08581); assay: c-Met Inhibition Assay, coupled enzyme system; conditions: enzyme inhibition data (Ki), Table 11
Description: Compounds are screened for their ability to inhibit c-Met kinase activity using a standard coupled enzyme system (Fox et al., Protein Sci. 1998, 7, 2249). Reactions are carried out in a solution containing 100 mM HEPES (pH 7.5), 10 mM MgCl2, 25 mM NaCl, 300 μM NADH, 1 mM DTT, and 1.5% DMSO. Final substrate concentrations in the assay are 200 μM ATP (Sigma Chemicals, St Louis, Mo.) and 10 μM polyGluTyr (Sigma Chemical Company, St. Louis). Reactions are carried out at 30° C. and 80 nM c-Met. Final concentrations of the components of the coupled enzyme system are 2.5 mM phosphoenolpyruvate, 300 μM NADH, 30 μg/ml pyruvate kinase and 10 μg/ml lactate dehydrogenase.
An assay stock buffer solution is prepared containing all of the reagents listed above with the exception of ATP and a test compound of the present invention. The assay stock buffer solution (175 μl) is incubated in a 96 well plate with 5 μl of the test compound of the present invention at final concentrations spanning 0.006 μM to 12.5 μM at 30° C. for 10 minutes. Typically, a 12-point titration is conducted by preparing serial dilutions (from 10 mM compound stocks) with DMSO of the test compounds of the present invention in daughter plates. The reaction is initiated by the addition of 20 μl of ATP (final concentration 200 μM). Rates of reaction are obtained using a Molecular Devices Spectramax plate reader (Sunnyvale, Calif.) over 10 minutes at 30° C. The Ki values are determined from the rate data as a function of inhibitor concentration.

c-Met, sequence (P08581 25-1390): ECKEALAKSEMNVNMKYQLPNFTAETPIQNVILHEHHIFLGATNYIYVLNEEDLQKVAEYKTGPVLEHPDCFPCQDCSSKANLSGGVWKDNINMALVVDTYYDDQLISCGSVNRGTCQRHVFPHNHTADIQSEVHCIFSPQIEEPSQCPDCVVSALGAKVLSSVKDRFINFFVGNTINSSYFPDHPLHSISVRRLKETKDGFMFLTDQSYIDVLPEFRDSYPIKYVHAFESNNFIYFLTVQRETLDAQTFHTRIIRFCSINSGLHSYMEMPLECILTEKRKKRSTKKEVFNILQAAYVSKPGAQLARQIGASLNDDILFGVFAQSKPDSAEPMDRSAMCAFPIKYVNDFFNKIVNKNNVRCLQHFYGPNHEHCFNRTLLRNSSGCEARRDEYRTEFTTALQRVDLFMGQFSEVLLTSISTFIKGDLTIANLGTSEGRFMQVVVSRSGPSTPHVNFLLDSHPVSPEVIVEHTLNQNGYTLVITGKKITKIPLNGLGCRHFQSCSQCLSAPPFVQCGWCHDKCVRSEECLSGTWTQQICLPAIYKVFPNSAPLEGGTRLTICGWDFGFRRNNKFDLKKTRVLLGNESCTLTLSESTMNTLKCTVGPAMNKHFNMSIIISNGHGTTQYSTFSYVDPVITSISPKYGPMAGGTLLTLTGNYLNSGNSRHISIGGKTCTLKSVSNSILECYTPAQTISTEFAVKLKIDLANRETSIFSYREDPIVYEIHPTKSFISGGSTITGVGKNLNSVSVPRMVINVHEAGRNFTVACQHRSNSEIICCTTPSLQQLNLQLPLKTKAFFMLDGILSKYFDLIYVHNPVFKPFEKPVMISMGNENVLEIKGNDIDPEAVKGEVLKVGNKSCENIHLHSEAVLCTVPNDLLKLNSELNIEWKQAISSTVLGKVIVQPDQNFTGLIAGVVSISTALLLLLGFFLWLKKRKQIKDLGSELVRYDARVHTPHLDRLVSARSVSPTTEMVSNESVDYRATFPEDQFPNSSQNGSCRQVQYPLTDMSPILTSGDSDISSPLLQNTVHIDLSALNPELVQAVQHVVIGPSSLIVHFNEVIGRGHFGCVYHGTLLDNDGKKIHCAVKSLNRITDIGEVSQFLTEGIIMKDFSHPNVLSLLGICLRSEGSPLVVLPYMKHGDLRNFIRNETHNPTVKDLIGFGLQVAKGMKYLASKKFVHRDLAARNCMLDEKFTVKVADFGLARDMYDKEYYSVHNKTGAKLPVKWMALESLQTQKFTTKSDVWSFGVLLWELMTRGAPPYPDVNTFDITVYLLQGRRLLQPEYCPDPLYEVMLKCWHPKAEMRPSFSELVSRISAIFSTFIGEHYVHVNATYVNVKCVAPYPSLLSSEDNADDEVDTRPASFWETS

Row | SMILES | Ki (Itk) | Ki (JAK3) | Ki (c-Met)
1 | CN(Cc1ccccc1)C(=O)c1c(N)nn2cc(-c3ccncn3)cnc12 [Compound V-41] | 500 to 5000 nM | > 5 µM | 500 to 5000 nM
2 | Nc1nn2cc(-c3ccncn3)cnc2c1-c1nncn1Cc1ccc(Cl)c(Cl)c1 [Compound V-136] | 500 to 5000 nM | > 5 µM | 500 to 5000 nM
3 | COCCCNC(=O)c1cccc(-c2cnc3c(-c4ccccn4)c(N)nn3c2)n1 [Compound V-108] | 500 to 5000 nM | > 5 µM | < 500 nM
4 | CCOC(=O)c1c(N)nn2cc(-c3ccccn3)cnc12 [Compound V-25] | 500 to 5000 nM | > 5 µM | 500 to 5000 nM
5 | Cc1cnc2c(-c3cc(N4CCCC(O)C4)ncn3)c(N)nn2c1 (stereo not drawn) [Compound V-342] | 500 to 5000 nM | 0.5 to 5 µM | < 500 nM
6 | Nc1nn2cc(-c3ccccn3)cnc2c1C(=O)NCc1ccc(Cl)c(Cl)c1 [Compound V-47] | 500 to 5000 nM | > 5 µM | 500 to 5000 nM
7 | CN1CCN(c2ncccc2-c2cnc3c(-c4ccccn4)c(N)nn3c2)CC1 [Compound V-268] | 500 to 5000 nM | > 5 µM | 500 to 5000 nM
8 | Nc1nn2cc(C(=O)NCCc3ccccc3)cnc2c1-c1ccccn1 [Compound V-198] | 500 to 5000 nM | > 5 µM | 500 to 5000 nM
9 | CN(CCC#N)C(=O)c1c(N)nn2cc(-c3ccncn3)cnc12 [Compound V-40] | 500 to 5000 nM | > 5 µM | 500 to 5000 nM
10 | Nc1nn2cc(-c3cccnc3N3CCC[C@H]3CO)cnc2c1-c1ccccn1 [Compound V-262] | 500 to 5000 nM | > 5 µM | 500 to 5000 nM
11 | CC(C)NCCCc1cnc2c(-c3ccccn3)c(N)nn2c1 [Compound V-327] | 500 to 5000 nM | > 5 µM | 500 to 5000 nM
12 | Nc1nn2cc(CCCN3CCCC3)cnc2c1-c1ccccn1 [Compound V-311] | 500 to 5000 nM | > 5 µM | < 500 nM
13 | Nc1nn2cc(-c3ccncc3)cnc2c1-c1cccc(Br)n1 [Compound V-137] | 500 to 5000 nM | > 5 µM | 500 to 5000 nM

The remaining lines, values ahead:

Row | Ki (Itk) | Ki (JAK3) | Ki (c-Met) | SMILES
14 | 500 to 5000 nM | > 5 µM | < 500 nM | Nc1nn2cc(-c3ccncc3)cnc2c1-c1ccccc1 [Compound V-187]
15 | 500 to 5000 nM | 0.5 to 5 µM | < 500 nM | Nc1nn2cc(-c3ccnc(N4CCN(CCOCCO)CC4)c3)cnc2c1-c1ccccn1 [Compound V-249]
16 | 500 to 5000 nM | > 5 µM | 500 to 5000 nM | Nc1nn2cc(CCCN3CC[C@H](O)C3)cnc2c1-c1ccccn1 [Compound V-325]
17 | < 500 nM | 0.5 to 5 µM | < 500 nM | CCN(CC)CCN(C)C(=O)c1ccc(-c2cnc3c(-c4ccccn4)c(N)nn3c2)nc1 [Compound V-88]
18 | 500 to 5000 nM | > 5 µM | 500 to 5000 nM | C[C@@H](CO)NCCCc1cnc2c(-c3ccccn3)c(N)nn2c1 [Compound V-326]
19 | 500 to 5000 nM | > 5 µM | 500 to 5000 nM | Nc1nn2cc(-c3ccc(N4CCSCC4)nc3)cnc2c1-c1ccccn1 [Compound V-170]
20 | 500 to 5000 nM | > 5 µM | < 500 nM | CN1CCCN(C(=O)c2cccc(-c3cnc4c(-c5ccccn5)c(N)nn4c3)n2)CC1 [Compound V-105]
21 | 500 to 5000 nM | > 5 µM | 500 to 5000 nM | CN1CCCN(c2ncccc2-c2cnc3c(-c4ccccn4)c(N)nn3c2)CC1 [Compound V-267]
22 | < 500 nM | > 5 µM | 500 to 5000 nM | Nc1nn2cc(/C=C/c3ccccc3)cnc2c1-c1ccccn1 [Compound V-209]
23 | < 500 nM | < 0.5 µM | < 500 nM | Nc1nn2cc(-c3ccc(C(=O)N4CCCCC4)cn3)cnc2c1-c1ccccn1 [Compound V-91]
24 | < 500 nM | > 5 µM | < 500 nM | CCCCN(CCN)C(=O)c1ccc(-c2cnc3c(-c4ccccn4)c(N)nn3c2)nc1 [Compound V-80]
25 | < 500 nM | 0.5 to 5 µM | < 500 nM | Nc1nn2cc(-c3ccnc(NCCCC4=NCC=N4)c3)cnc2c1-c1ccccn1 [Compound V-250]
26 | < 500 nM | < 0.5 µM | < 500 nM | Cc1cnc2c(-c3cc(N4CCCC(C)C4)ncn3)c(N)nn2c1 (stereo not drawn) [Compound V-339]
